The record followed here is patent US6528511B2, “Partial fatty acid oxidation inhibitors in the treatment of congestive heart failure” (CV Therapeutics, Inc., priority 2000, dated 2003).

Where two headings read alike, the source gives them in different places. A value given as a limit tells only on which side of the number the result lay.

The nature of data set [1]: Ascending-dose SR bid study in healthy male volunteers, Day 5 pharmacokinetics of racemate and enantiomers. As to conditions: for concentration at 96 h / concentration at 108 h: male, human, plasma, oral; for concentration at 96 h: read-out: C96h; for concentration at 108 h: read-out: C108h; for Differences in pharmacokinetic parameters between enantiomers: multiple dosing with SR formulation. The data set is classed as in vivo, human. The method, then: This Example evaluated the safety and tolerability of administering racemic ranolazine free base formulations as in Example 3D. The individual and mean concentrations of racemic ranolazine and its enantiomers, (R)-(+)-N-(2,6-dimethylphenyl)-4-[2-hydroxy-3-(2 methoxyphenoxy)-propyl]-1-piperazineacetamide, (S)-(−)-N-(2,6-dimethylphenyl)-4-[2hydroxy-3-(2-methoxyphenoxy)-propyl]-1-piperazineacetamide in human plasma were also determined.
The study was performed with ascending doses of sustained release ranolazine dosage forms. Before and at intervals during and after the dosing period, blood samples were drawn for ranolazine assay and blood pressure, heart rate, ECG and symptoms were monitored throughout. Data summaries were reviewed after each phase before proceeding to the next phase of the study. Eight subjects, all healthy male volunteers aged between 18 and 40 entered and all completed the study and were available for pharmacokinetic and safety analysis. The subjects were each given doses of the various types of ranolazine free base in the form of sustained release tablets including 500 mg and 750 mg tablets or with matching placebo as necessary (2×750 mg size plus 1×500 mg size) to make unit oral doses of 1500 and 2000 mg.
In each phase: one dose bid for four days with a single dose on Day 5. On day 5 each volunteer underwent a full pharmacokinetic profile including supine and erect blood pressure (BP) and heart rate, ECG data, adverse events, clinical chemistry and hematology results, urinalysis results.
These tests were made using two-sided t-tests with estimates of variability from the ANOVA models. Steady state was also assessed by comparing means for C48 h, C72 h and C96 h using a mixed effects ANOVA model and untransformed and log, transformed data. For hemodynamic parameters, Day 1 pre-dose treatment means and Day 5 data were compared across treatments via two-sided t-tests using estimates of variability from mixed effects ANOVA models. Ninety and 95% confidence intervals were calculated for the treatment comparisons. No adjustments were made for multiple comparisons.

Data set [2] relates to dogs with heart failure. Briefly: Canine model of congestive heart failure (intracoronary microembolizations), hemodynamic and angiographic measurements. The data set is classed as in vivo, dog. As to conditions: iv bolus 0.5 mg/kg then 1.0 mg/kg/hr for 40 min. How it is done: The efficacy of ranolazine was studied using a canine model of congestive heart failure. Chronic LV dysfunction and failure was produced by multiple sequential intracoronary embolizations with polystyrene Latex microspheres (70-102 μm in diameter) which results in loss of viable myocardium. In the present study, 13 healthy mongrel dogs weighing between 23 and 25 kg underwent coronary microembolizations to produce heart failure. Intracoronary microembolizations were performed during cardiac catheterization under general anesthesia and sterile conditions. The anesthesia regimen consisted of intravenous oxymorphone hydrochloride (0.22 mg/kg), diazepam (0.17 mg/kg) and sodium pentobarbital (150-250 mg to effect). Dogs underwent an average of 5 microembolization procedures performed 1 to 3 weeks apart. Embolizations were discontinued when LV ejection fraction, determined angiographically, was <30%. Dogs were maintained for a period of 2-3 weeks to ensure that infarctions produced by the last microembolization were completely healed before studies were initiated. […] (The study was approved by the Henry Ford Health System Care of Experimental Animals Committee and conformed to the “Position of the American Heart Association on Research Animal Use,” adopted by the Association in November 1984, and to the Guiding Principles of the American Physiological Society on use of research animals). On the day of the study and following general anesthesia, aortic and LV pressure were measured with a catheter-tip micromanometer (Millar Instruments, Houston, Tex.) positioned through a femoral arteriotomy. Single-plane left ventriculograms were obtained during each catheterization after completion of the hemodynamic measurements with the dog placed on its right side. Ventriculograms were recorded on 35 mm cine film at 30 frames per second during the injection of 20 ml of contrast material (Reno-M-60, Squib, Princeton, N.J.). Correction for image magnification was made with a calibrated radiopaque grid placed at the level of the LV. Left ventricular end-systolic and end-diastolic volumes were calculated from ventricular silhouettes using the area-length method. The LV ejection fraction was calculated as the ratio of the difference of end-diastolic volume and end-systolic volume to end-diastolic volume times 100. Stroke volume was calculated as the difference between LV end-systolic and end-diastolic volumes obtained from the ventriculogram. Cardiac output was calculated as the product of stroke volume and heart rate. Extra systolic and post-extra systolic beats were excluded from all analyses. In each normal or heart failure dog, ranolazine dihydrochloride was administered in saline as an intravenous bolus injection of 0.5 mg/kg followed by a continuous intravenous infusion of 1.0 mg/kg/hr for 40 min. Arterial blood samples were drawn for determination of plasma ranolazine concentration. Samples were obtained at 5, 10, 20, 30, 35 and 40 min after initiation of treatment. Ranolazine was measured by high performance liquid chromatography (HPLC) using mass spectral detection. Following the withdrawal of the final blood sample at 40 min, hemodynamic and angiographic measurements were repeated. Each animal served as its own control. Pre-treatment values were compared to post-treatment values using a two-tailed paired Student's t-test with significance set at p<0.05. Data are presented as the mean±standard error of the mean.

Data set [3] in a line: Arterial plasma ranolazine concentration in normal and heart failure dogs (HPLC-MS). Format: in vivo, dog. As to conditions: for Average ranolazine concentration during the final 10 minutes of treatment: dihydrochloride iv bolus 0.5 mg/kg then 1.0 mg/kg/hr for 40 min, mean±SEM. How it is done:
In each normal or heart failure dog, ranolazine dihydrochloride was administered in saline as an intravenous bolus injection of 0.5 mg/kg followed by a continuous intravenous infusion of 1.0 mg/kg/hr for 40 min. Arterial blood samples were drawn for determination of plasma ranolazine concentration. Samples were obtained at 5, 10, 20, 30, 35 and 40 min after initiation of treatment. Ranolazine was measured by high performance liquid chromatography (HPLC) using mass spectral detection. Following the withdrawal of the final blood sample at 40 min, hemodynamic and angiographic measurements were repeated.

Data set [4] is described as follows: Solubility of ranolazine in aqueous solutions versus solution pH. The data set is classed as physicochemical.
Data set [5] has as its system Patients, with or without congestive heart failure, with reproducible angina-limited exercise duration. Description: Exercise treadmill tolerance testing (ETT), modified Bruce protocol, crossover versus placebo. The data set is classed as in vivo, human. The note with it: 500-1500 mg bid. The method, then: Patients, with or without congestive heart failure were withdrawn from anti-anginal drugs with reproducible anginalimited exercise duration and >1 mm ST depression were randomized to Ran (500 mg bid, 1000 mg bit and 1500 mg bid) and matching placebo (Pbo) in a double-blind, four-period, Latin square crossover design. Exercise treadmill tolerance testing (ETT) was performed following a modified Bruce protocol, at trough (12 hr after dosing) and peak (4 hr after dosing) dosing times.

As for `COc1ccccc1OC[C@H](O)CN1CCN(CC(=O)Nc2c(C)cccc2C)CC1` [(+)R ranolazine, (R)-(+)-N-(2,6-dimethylphenyl)-4-[2-hydroxy-3-(2 methoxyphenoxy)-propyl]-1-piperazineacetamide], in data set [1] (Day 5, 1500 mg SR bid), the Cave was 2144 ± 1115 ng/mL, the Cmin amounted to 1436 ± 1046 ng/mL and the Degree of fluctuation is listed as 0.833 ± 0.402. Moreover, in data set [1] (1500 mg SR bid), the concentration at 96 h was determined as 2010 ± 1140 ng/mL and the concentration at 108 h is 1450 ± 1070 ng/mL. Moreover, the “Differences in pharmacokinetic parameters between enantiomers” value in data set [1] is reported as “no differences”.
Regarding `COc1ccccc1OCC(O)CN1CCN(CC(=O)Nc2c(C)cccc2C)CC1` (racemic) [ranolazine, (±)-N-(2,6-dimethylphenyl)-4-[2-hydroxy-3-(2-methoxyphenoxy)-propyl]-1-piperazineacetamide], the “Effect on heart rate” value in data set [2] (post- vs pre-treatment) is recorded as “no significant effects”. Also, the “Effect on mean aortic pressure” value in data set [2] (post- vs pre-treatment) is “no significant effects”. Besides, the LV ejection fraction result in data set [2] (post- vs pre-treatment) is reported as “significant increase”. Besides, in data set [2] (post- vs pre-treatment), the “LV peak+dP/dt” value is reported as “significant increase”. In addition, in data set [2] (post- vs pre-treatment), the LV stroke volume result is recorded as “significant increase”. The “LV peak−dP/dt (diastolic function)” value in data set [2] (data not shown) is “increase”. Moreover, the Cave in data set [1] (Day 5, 1500 mg SR bid) stood at 4126 ± 1995 ng/mL; in data set [1] (Day 5, 2000 mg SR bid) it was 5705 ± 2153 ng/mL. The Cmin in data set [1] (Day 5, 1500 mg SR bid) was 2932 ± 1918 ng/mL; in data set [1] (Day 5, 2000 mg SR bid) it was 4149 ± 2228 ng/mL. The Degree of fluctuation turned out to be 0.664 ± 0.336 in data set [1] (Day 5, 1500 mg SR bid) and 0.591 ± 0.240 in data set [1] (Day 5, 2000 mg SR bid). The “Steady-state plasma levels attained by” value in data set [1] (SR bid dosing, ranolazine free base) is ≤ 4 days. In addition, the concentration at 96 h in data set [1] (1500 mg SR bid) is 3660 ± 1920 ng/mL; in data set [1] (2000 mg SR bid), 5040 ± 1800 ng/mL. The concentration at 108 h was 2940 ± 1940 ng/mL in data set [1] (1500 mg SR bid) and 4400 ± 2400 ng/mL in data set [1] (2000 mg SR bid). Moreover, the Average ranolazine concentration during the final 10 minutes of treatment in data set [3] (dogs with heart failure) is 0.33 ± 0.04 µg/mL; in data set [3] (normal dogs), 0.3 ± 0.02 µg/mL. Further, the “Time by which arterial ranolazine levels stabilized following the bolus injection” value in data set [3] (iv bolus plus infusion, dogs) is ≤ 10 min. Moreover, the “USP Solubility Class” value in data set [4] (Solution pH 4.81) is given as “Freely Soluble”; in data set [4] (Solution pH 4.89) it was “Soluble”; in data set [4] (Solution pH 4.90), “Soluble”; in data set [4] (Solution pH 5.04), “Soluble”; in data set [4] (Solution pH 5.35), “Sparingly Soluble”; in data set [4] (Solution pH 5.82), “Slightly soluble”. Moreover, the “USP Solubility Class” value is reported as “Slightly soluble” in data set [4] (Solution pH 6.46); “Very slightly soluble” in data set [4] (Solution pH 6.73); “Very slightly soluble” in data set [4] (Solution pH 7.08); “Very slightly soluble” in data set [4] (Solution pH 7.59 (unbuffered water)); “Very slightly soluble” in data set [4] (Solution pH 7.79); “Very slightly soluble” in data set [4] (Solution pH 12.66). The “Solubility in aqueous solutions” value in data set [4] (pH above about 6.5) is recorded as “relatively insoluble”. Moreover, the “Effects vs. Pbo on rest or exercise blood pressure or heart rate” value in data set [5] was “no clinically meaningful effects”. Also, in data set [5], the “Exercise duration times in comparison to the placebo” value is listed as “improved”.
Take `COc1ccccc1OC[C@@H](O)CN1CCN(CC(=O)Nc2c(C)cccc2C)CC1` [(−)S ranolazine, (S)-(−)-N-(2,6-dimethylphenyl)-4-[2hydroxy-3-(2-methoxyphenoxy)-propyl]-1-piperazineacetamide]: in data set [1] (Day 5, 1500 mg SR bid), the Cave was 2201 ± 1237 ng/mL, the Cmin was found to be 1514 ± 1201 ng/mL and the Degree of fluctuation is 0.824 ± 0.443. In addition, in data set [1] (1500 mg SR bid), the concentration at 96 h stood at 2400 ± 1200 ng/mL and the concentration at 108 h came to 1540 ± 1260 ng/mL. The “Differences in pharmacokinetic parameters between enantiomers” value in data set [1] was “no differences”.
